Laboratory results published in ChEMBL document CHEMBL1629609, “Phenotypic and enzymatic comparative analysis of the novel KPC variant KPC-5 and its evolutionary variants, KPC-2 and KPC-4” (Antimicrob Agents Chemother, 2009).
≈ marks a conversion by molar mass, not a printed value.

Columns and labels:
Escherichia coli [1] = assay: Antibacterial activity against Escherichia coli TOP10 harboring beta-lactamase KPC-4 by agar dilution method; type: functional
Escherichia coli [2] = assay: Antibacterial activity against Escherichia coli TOP10 by agar dilution method; type: functional
[3] = system: Enterobacter cancerogenus; assay: Antibacterial activity against Enterobacter cancerogenus E624 harboring beta-lactamase KPC-4 by agar dilution method; type: functional
Escherichia coli [4] = assay: Antibacterial activity against Escherichia coli TOP10 harboring beta-lactamase KPC-5 by agar dilution method; type: functional
Escherichia coli [5] = assay: Antibacterial activity against Escherichia coli TOP10 harboring beta-lactamase KPC-2 by agar dilution method; type: functional
Escherichia coli [6] = assay: Ratio of MIC for Escherichia coli TOP10 harboring beta-lactamase KPC-2 to MIC for Escherichia coli TOP10 harboring beta-lactamase KPC-4; type: functional
Escherichia coli [7] = assay: Ratio of MIC for Escherichia coli TOP10 harboring beta-lactamase KPC-2 to MIC for Escherichia coli TOP10 harboring beta-lactamase KPC-5; type: functional
Escherichia coli [8] = assay: Metabolic stability in Escherichia coli TOP10 harboring beta-lactamase KPC-2 assessed as hydrolysis rate per mg of extracts at 100 uM after 5 mins by spectrophotometric analysis; type: ADME, organism-based; settings: in vivo
Escherichia coli [9] = assay: Metabolic stability in Escherichia coli TOP10 harboring beta-lactamase KPC-4 assessed as hydrolysis rate per mg of extracts at 100 uM after 5 mins by spectrophotometric analysis; type: ADME, organism-based; settings: in vivo
Escherichia coli [10] = assay: Metabolic stability in Escherichia coli TOP10 harboring beta-lactamase KPC-2 assessed as hydrolysis rate per mg of extracts at 100 uM after 5 mins by spectrophotometric analysis in presence of clavulanic acid; type: ADME, organism-based; settings: in vivo
Escherichia coli [11] = assay: Metabolic stability in Escherichia coli TOP10 harboring beta-lactamase KPC-5 assessed as hydrolysis rate per mg of extracts at 100 uM after 5 mins by spectrophotometric analysis in presence of clavulanic acid; type: ADME, organism-based; settings: in vivo
Escherichia coli [12] = assay: Metabolic stability in Escherichia coli TOP10 harboring beta-lactamase KPC-5 assessed as hydrolysis rate per mg of extracts at 100 uM after 5 mins by spectrophotometric analysis; type: ADME, organism-based; settings: in vivo
Escherichia coli [13] = assay: Metabolic stability in Escherichia coli TOP10 harboring beta-lactamase KPC-4 assessed as hydrolysis rate per mg of extracts at 100 uM after 5 mins by spectrophotometric analysis in presence of clavulanic acid; type: ADME, organism-based; settings: in vivo
Pseudomonas aeruginosa [14] = assay: Antibacterial activity against Pseudomonas aeruginosa PR100 harboring beta-lactamase KPC-2 by agar dilution method; type: functional
Escherichia coli [15] = assay: Metabolic stability in Escherichia coli TOP10 harboring beta-lactamase KPC-2 assessed as hydrolysis rate per mg of extracts at 50 uM after 5 mins by spectrophotometric analysis; type: ADME, organism-based; settings: in vivo
Escherichia coli [16] = assay: Metabolic stability in Escherichia coli TOP10 harboring beta-lactamase KPC-5 assessed as hydrolysis rate per mg of extracts at 50 uM after 5 mins by spectrophotometric analysis; type: ADME, organism-based; settings: in vivo
Escherichia coli [17] = assay: Metabolic stability in Escherichia coli TOP10 harboring beta-lactamase KPC-4 assessed as hydrolysis rate per mg of extracts at 50 uM after 5 mins by spectrophotometric analysis; type: ADME, organism-based; settings: in vivo
Pseudomonas aeruginosa [18] = assay: Antibacterial activity against Pseudomonas aeruginosa PR280 harboring beta-lactamase KPC-5 by agar dilution method; type: functional
Escherichia coli [19] = assay: Antibacterial activity against Escherichia coli TOP10 by agar dilution method in presence of clavulanic acid
Escherichia coli [20] = assay: Antibacterial activity against Escherichia coli TOP10 harboring beta-lactamase KPC-5 by agar dilution method in presence of clavulanic acid
Escherichia coli [21] = assay: Antibacterial activity against Escherichia coli TOP10 harboring beta-lactamase KPC-2 by agar dilution method in presence of clavulanic acid; type: functional
Escherichia coli [22] = assay: Antibacterial activity against Escherichia coli TOP10 harboring beta-lactamase KPC-4 by agar dilution method in presence of clavulanic acid; type: functional
Escherichia coli [23] = assay: Antibacterial activity against Escherichia coli TOP10 harboring beta-lactamase KPC-4 by agar dilution method in presence of Tazobactam; type: functional
Pseudomonas aeruginosa [24] = assay: Antibacterial activity against Pseudomonas aeruginosa PR280 harboring beta-lactamase KPC-5 by agar dilution method in presence of Tazobactam; type: functional
[25] = system: Enterobacter cancerogenus; assay: Antibacterial activity against Enterobacter cancerogenus E624 harboring beta-lactamase KPC-4 by agar dilution method in presence of Tazobactam; type: functional
Pseudomonas aeruginosa [26] = assay: Antibacterial activity against Pseudomonas aeruginosa PR100 harboring beta-lactamase KPC-2 by agar dilution method in presence of Tazobactam; type: functional
Escherichia coli [27] = assay: Antibacterial activity against Escherichia coli TOP10 by agar dilution method in presence of Tazobactam; type: functional
Escherichia coli [28] = assay: Antibacterial activity against Escherichia coli TOP10 harboring beta-lactamase KPC-5 by agar dilution method in presence of Tazobactam; type: functional
Escherichia coli [29] = assay: Antibacterial activity against Escherichia coli TOP10 harboring beta-lactamase KPC-2 by agar dilution method in presence of Tazobactam; type: functional

Row | Compound | MIC (Escherichia coli [1]) [µg/mL] | MIC (Escherichia coli [2]) [µg/mL] | MIC [3] [µg/mL] | MIC (Escherichia coli [4]) [µg/mL] | MIC (Escherichia coli [5]) [µg/mL] | Stability (Escherichia coli [8]) [nmol/min] | Stability (Escherichia coli [9]) [nmol/min] | Stability (Escherichia coli [12]) [nmol/min] | other results
1 | C[C@@H](O)[C@H]1C(=O)N2C(C(=O)O)=C(S[C@@H]3CN[C@H](C(=O)Nc4cccc(C(=O)O)c4)C3)[C@H](C)[C@H]12 | 2 (≈ 4.21 µM) | < 0.06 | > 16 | 8 (≈ 16.8 µM) | 16 (≈ 33.6 µM) |  |  |  | 
2 | CO[C@@]1(NC(=O)Cc2cccs2)C(=O)N2C(C(=O)O)=C(COC(N)=O)CS[C@@H]21 [CEFOXITIN] | 8 (≈ 18.7 µM) | 4 (≈ 9.36 µM) | > 64 | 16 (≈ 37.4 µM) | 32 (≈ 74.9 µM) |  |  |  | Ratio (Escherichia coli [6]): 4; Ratio (Escherichia coli [7]): 2
3 | CC(=O)OCC1=C(C(=O)O)N2C(=O)[C@@H](NC(=O)Cc3cccs3)[C@H]2SC1 [CEPHALOTHIN] |  |  |  |  |  | 65 | 53 | 50 | Stability (Escherichia coli [10]): 25 nmol/min; Stability (Escherichia coli [11]): 7 nmol/min; Stability (Escherichia coli [13]): 6 nmol/min
4 | CO/N=C(\C(=O)N[C@@H]1C(=O)N2C(C(=O)O)=C(COC(C)=O)CS[C@H]12)c1csc(N)n1 [CEFOTAXIME] | 64 (≈ 141 µM) | < 0.06 | > 64 | 64 (≈ 141 µM) | 64 (≈ 141 µM) | 1310 | 172 | 368 | Stability (Escherichia coli [10]): 487 nmol/min; Stability (Escherichia coli [11]): 48 nmol/min; Stability (Escherichia coli [13]): 20 nmol/min
5 | CO/N=C(\C(=O)N[C@@H]1C(=O)N2C(C(=O)[O-])=C(C[N+]3(C)CCCC3)CS[C@H]12)c1csc(N)n1 | 8 (≈ 16.6 µM) | < 0.06 | 64 (≈ 133 µM) |  | 16 (≈ 33.3 µM) |  |  |  | 
6 | CC(C)(O/N=C(\C(=O)N[C@@H]1C(=O)N2C(C(=O)[O-])=C(C[n+]3ccccc3)CS[C@H]12)c1csc(N)n1)C(=O)O [CEFTAZIDIME] | > 128 | 0.12 (≈ 0.22 µM) | > 64 | 128 (≈ 234 µM) | 32 (≈ 58.5 µM) |  |  |  | MIC (Pseudomonas aeruginosa [14]): 64 µg/mL (≈ 117 µM); Stability (Escherichia coli [15]): 3 nmol/min; Ratio (Escherichia coli [6]): 8; Stability (Escherichia coli [16]): 6 nmol/min; Stability (Escherichia coli [17]): 7 nmol/min; MIC (Pseudomonas aeruginosa [18]): 128 µg/mL (≈ 234 µM)
7 | C[C@@H](O)[C@H]1C(=O)N2C(C(=O)O)=C(SCCN=CN)C[C@H]12 [IMIPENEM ANHYDROUS] | 2 (≈ 6.68 µM) | 0.12 (≈ 0.401 µM) | > 32 | 4 (≈ 13.4 µM) | 16 (≈ 53.4 µM) | 412 | 69 | 116 | MIC (Escherichia coli [19]): 0.12 µg/mL; MIC (Pseudomonas aeruginosa [14]): > 64 µg/mL; MIC (Escherichia coli [20]): 0.12 µg/mL; MIC (Escherichia coli [21]): 4 µg/mL; MIC (Escherichia coli [22]): < 0.06 µg/mL; MIC (Pseudomonas aeruginosa [18]): > 64 µg/mL
8 | C[C@@H](O)[C@H]1C(=O)N2C(C(=O)O)=C(S[C@@H]3CN[C@H](C(=O)N(C)C)C3)[C@H](C)[C@H]12 [MEROPENEM] | 1 (≈ 2.61 µM) | < 0.06 | > 32 |  | 8 (≈ 20.9 µM) |  |  |  | 
9 | C[C@H]1[C@H](NC(=O)/C(=N\OC(C)(C)C(=O)O)c2csc(N)n2)C(=O)N1S(=O)(=O)O [AZTREONAM] | > 128 | < 0.12 | > 64 | > 128 | > 128 |  |  |  | 
10 | CCN1CCN(C(=O)N[C@@H](C(=O)N[C@@H]2C(=O)N3[C@@H]2SC(C)(C)[C@@H]3C(=O)O)c2ccccc2)C(=O)C1=O [PIPERACILLIN] |  |  |  |  |  |  |  |  | MIC (Escherichia coli [23]): 128 µg/mL; MIC (Pseudomonas aeruginosa [24]): 128 µg/mL; MIC [25]: > 64 µg/mL; MIC (Pseudomonas aeruginosa [26]): > 256 µg/mL; MIC (Escherichia coli [27]): 1 µg/mL; MIC (Escherichia coli [28]): > 256 µg/mL; MIC (Escherichia coli [29]): > 256 µg/mL
